Legend:
Experiment in all cases: relative viability (nuclei count vs DMSO), 5 days (fraction); higher = more cells survive
AZ3146 + Phenformin = compound: CN1CCC(CC1)OC2=CC(=C(C=C2)NC3=NC=C4C(=N3)N(C(=O)N4C)C5CCCC5)OC [AZ3146] + N=C(N)NC(=N)NCCc1ccccc1 [Phenformin] (partner 250 µM)
Method in brief: (§1)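 Relative viability divides the nuclei count in treated wells by that in vehicle wells. Lung cancer cell lines were seeded in 1536-well plates, dosed by pin tool the next day, and fixed and stained after 5 days in one step with final 0.05% Triton X-100, 1% formaldehyde and 1 ug/ml Hoechst. Dosing was a single drug or a fixed anchor-drug dose plus five library-drug doses (not always all listed) in √10 steps, and values are medians of duplicate plates imaged at 4×.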

AZ3146 + AZD7762 = compound: CN1CCC(CC1)OC2=CC(=C(C=C2)NC3=NC=C4C(=N3)N(C(=O)N4C)C5CCCC5)OC [AZ3146] + NC(=O)Nc1cc(-c2cccc(F)c2)sc1C(=O)N[C@H]1CCCNC1 [AZD7762] (partner 0.2 µM)
Method in brief: as §1

GSK-J4 + Vorinostat = compound: CCOC(=O)CCNc1cc(N2CCc3ccccc3CC2)nc(-c2ccccn2)n1 [GSK-J4] + O=C(CCCCCCC(=O)Nc1ccccc1)NO [Vorinostat] (partner 1 µM)
Method in brief: as §1

GSK-J4 + Bortezomib = compound: CCOC(=O)CCNc1cc(N2CCc3ccccc3CC2)nc(-c2ccccn2)n1 [GSK-J4] + CC(C)C[C@H](NC(=O)[C@H](Cc1ccccc1)NC(=O)c1cnccn1)B(O)O [Bortezomib] (partner 0.002 µM)
Method in brief: as §1

Cell Line | relative viability (AZ3146 + Phenformin; first compound 0.08 µM) | relative viability (AZ3146 + Phenformin; first compound 0.253 µM) | relative viability (AZ3146 + Phenformin; first compound 0.8 µM) | relative viability (AZ3146 + Phenformin; first compound 2.53 µM) | relative viability (AZ3146 + Phenformin; first compound 8 µM) | relative viability (AZ3146 + AZD7762; first compound 0.08 µM) | relative viability (AZ3146 + AZD7762; first compound 0.253 µM) | relative viability (AZ3146 + AZD7762; first compound 0.8 µM) | relative viability (AZ3146 + AZD7762; first compound 2.53 µM) | relative viability (AZ3146 + AZD7762; first compound 8 µM) | relative viability (GSK-J4 + Vorinostat; first compound 0.5 µM) | relative viability (GSK-J4 + Vorinostat; first compound 1.581 µM) | relative viability (GSK-J4 + Vorinostat; first compound 5 µM) | relative viability (GSK-J4 + Vorinostat; first compound 15.81 µM) | relative viability (GSK-J4 + Vorinostat; first compound 50 µM) | relative viability (GSK-J4 + Bortezomib; first compound 0.5 µM) | relative viability (GSK-J4 + Bortezomib; first compound 1.581 µM) | relative viability (GSK-J4 + Bortezomib; first compound 5 µM) | relative viability (GSK-J4 + Bortezomib; first compound 15.81 µM) | relative viability (GSK-J4 + Bortezomib; first compound 50 µM)
HCC-827 | 0.443 | 0.372 | 0.401 | 0.416 | 0.348 | 0.154 | 0.17 | 0.188 | 0.212 | 0.213 | 0.873 | 0.731 | 0.782 | 0.774 | 0.787 | 1.02 | 0.95 | 0.883 | 1.11 | 1.04
IA-LM |  |  |  |  |  |  |  |  |  |  | 0.901 |  | 1.34 | 0.711 | 0.294 | 0.709 | 0.816 | 0.775 | 0.763 | 0.131
NCI-H1623 | 0.586 | 0.534 | 0.591 | 0.607 | 0.565 |  |  |  |  |  |  |  |  |  |  |  |  |  |  | 
NCI-H3122 | 0.367 | 0.391 | 0.327 | 0.339 | 0.305 | 1.01 | 0.933 | 0.966 | 1.06 | 0.973 | 0.984 | 0.876 | 0.966 | 0.905 | 0.986 | 0.938 | 0.982 | 0.986 | 1.02 | 0.993
RERF-LC-KJ | 0.395 | 0.44 | 0.433 | 0.432 | 0.384 | 0.879 | 0.61 | 0.883 | 0.976 | 0.972 | 0.679 | 0.534 | 0.576 | 0.613 | 0.485 | 0.989 | 0.993 | 1.04 | 1.11 | 0.963
NCI-H1703 |  |  |  |  |  | 0.104 | 0.164 | 0.106 |  | 0.183 |  |  |  |  |  | 0.377 | 0.377 | 0.234 | 0.355 | 0.436
HCC-15 | 0.51 | 0.463 | 0.429 | 0.427 | 0.391 | 1.27 | 1.1 | 1.33 | 1.1 | 1.16 | 0.903 | 0.791 | 0.789 | 0.718 | 0.503 | 1.01 | 0.527 | 0.943 | 1.01 | 0.906
NCI-H1666 | 0.592 | 0.574 | 0.53 | 0.608 | 0.528 | 0.819 | 0.806 | 0.808 | 0.74 | 0.887 | 0.956 | 0.931 | 0.97 | 1.01 | 0.737 | 0.776 |  | 0.84 | 0.66 | 0.495
NCI-H1395 | 0.394 | 0.45 | 0.379 | 0.423 | 0.445 | 0.352 | 0.389 |  | 0.379 | 0.4 | 1.11 | 0.813 | 0.625 | 0.594 | 0.62 |  |  |  |  | 
SK-LU-1 | 0.486 | 0.512 | 0.424 | 0.607 | 0.345 |  |  |  |  |  | 0.751 | 0.679 | 0.626 | 0.58 | 0.578 | 1.02 | 1.06 | 0.705 | 0.8 | 0.902
NCI-H1299 |  |  |  |  |  |  |  |  |  |  |  |  |  |  |  | 1.06 | 0.94 | 0.876 | 0.98 | 0.985
NCI-H1563 | 0.619 | 0.645 | 0.596 | 0.639 | 0.644 |  |  |  |  |  |  |  |  |  |  | 0.809 | 0.952 | 0.776 | 0.66 | 0.808
HOP-62 | 0.567 | 0.697 | 0.604 | 0.647 | 0.523 | 0.276 | 0.61 | 0.485 | 0.582 | 0.791 | 0.48 | 0.355 | 0.585 | 0.507 | 0.35 | 0.688 | 0.532 | 0.73 | 0.74 | 0.823
NCI-H1651 | 0.31 | 0.316 | 0.345 | 0.34 | 0.313 | 0.277 | 0.382 | 0.351 | 0.398 | 0.385 | 0.607 | 0.537 | 0.558 | 0.448 | 0.464 | 0.893 | 0.842 | 0.893 | 0.901 | 0.884
HCC-366 | 0.58 | 0.544 | 0.607 | 0.601 | 0.587 | 0.212 | 0.288 | 0.263 | 0.203 | 0.112 | 0.284 | 0.287 |  | 0.285 | 0.34 | 1 | 1.02 |  | 1.01 | 0.96
EMC-BAC-2 | 0.413 | 0.465 | 0.53 | 0.533 | 0.478 | 0.94 | 1.09 | 1.25 | 0.998 | 1.07 | 0.494 | 0.497 |  | 0.364 | 0.457 | 1.08 | 0.944 | 0.811 | 0.965 | 1.08
NCI-H2228 | 0.345 | 0.389 | 0.351 | 0.321 | 0.277 |  |  |  |  |  | 0.642 | 0.873 | 0.823 | 0.617 | 0.797 | 0.745 | 0.913 | 0.973 | 0.906 | 0.937
LK-2 | 0.397 | 0.392 | 0.292 | 0.409 | 0.295 |  |  | 0.372 | 0.347 | 0.286 | 0.193 | 0.248 | 0.243 | 0.126 | 0.579 |  |  |  |  | 
NCI-H1650 | 0.415 | 0.355 | 0.449 | 0.386 | 0.26 |  |  |  |  |  | 0.567 | 0.501 | 0.663 | 0.48 | 0.286 | 0.17 | 0.164 | 0.219 | 0.174 | 0.232
Calu-6 |  |  |  |  |  |  |  |  |  |  |  |  |  |  |  | 0.884 | 0.912 | 1.08 | 1.13 | 0.898
ABC-1 | 0.266 | 0.19 | 0.212 | 0.226 | 0.26 | 0.756 | 0.717 | 0.829 | 0.893 | 1 | 1.2 | 1.31 | 0.879 | 0.704 | 0.555 | 0.329 | 0.246 | 0.258 | 0.328 | 0.327

Reference: the supplement of paper PMC10307832
